Assays:
[1] = tested on: human endometrial cancer cell strain AN3CA; assay: Cell growth inhibition test (MTT), AN3CA; assay type: cell-based; conditions: AN3-CA, 72 h, 3 days culture, read-out: concentration exhibiting anti-cell effect (GI50)
Procedure, shortened: (§1)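 MTT read-out at 540 nm after 4 h formazan formation gives living cell count following 3-day compound exposure at 37° C, 5% CO2. Seeding: 5000 AN3CA, 1000 IGROV1, 5000 HT29 cells/well. Growth rate T/C % = 100×[(B−C)/(A−C)], with C taken before dosing; GI50 = concentration giving 50% growth.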

[2] = tested on: human colon cancer cell strain HT29; assay: Cell growth inhibition test (MTT), HT29; assay type: cell-based; conditions: HT-29, 72 h, HT29, 3 days culture, read-out: concentration exhibiting anti-cell effect (GI50)
Procedure, shortened: as §1

[3] = tested on: S6 (serine 235 and 236) phosphorylation in AN3CA tumor; assay: S6 phosphorylation inhibition assay in xenograft; assay type: in vivo, female nude mouse; conditions: Mus musculus, AN3-CA, oral, 6 hr after dosing
Procedure, shortened: (§2)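 AN3CA human endometrial cancer cells grown as subcutaneous xenografts in female nude mice; compound dosed orally at a set concentration, tumors excised after a set time. Tumor lysates at equal protein were western blotted for p-Akt(T308) and p-S6(S235/236). Inhibition (%) = 100−100×(treated/untreated phospho signal).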

[4] = target: PI3Kα (Homo sapiens, UniProt P42336); assay: PI3K kinase activity inhibition assay; assay type: biochemical; conditions: Kinase-Glo Plus ATP detection, read-out: IC50 against PI3K
Procedure, shortened: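 PI3Kα (50 nM solution) was reacted with 30 μM ATP and 45 μM PIP2 solutions, each in HEPES pH 7.4 with MgCl2 and DTT, for 2 h at room temperature. Remaining ATP was measured by Kinase-Glo Plus luminescence, and inhibition was derived from ATP consumed. IC50 was taken from curve fitting of the serial dilutions.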

[5] = tested on: Akt (threonine 308) phosphorylation in AN3CA tumor; assay: Akt phosphorylation inhibition assay in xenograft; assay type: in vivo, female nude mouse; conditions: Mus musculus, AN3-CA, oral, 6 hr after dosing
Procedure, shortened: as §2

Sequence of PI3Kα (P42336 whole entry, species assumed): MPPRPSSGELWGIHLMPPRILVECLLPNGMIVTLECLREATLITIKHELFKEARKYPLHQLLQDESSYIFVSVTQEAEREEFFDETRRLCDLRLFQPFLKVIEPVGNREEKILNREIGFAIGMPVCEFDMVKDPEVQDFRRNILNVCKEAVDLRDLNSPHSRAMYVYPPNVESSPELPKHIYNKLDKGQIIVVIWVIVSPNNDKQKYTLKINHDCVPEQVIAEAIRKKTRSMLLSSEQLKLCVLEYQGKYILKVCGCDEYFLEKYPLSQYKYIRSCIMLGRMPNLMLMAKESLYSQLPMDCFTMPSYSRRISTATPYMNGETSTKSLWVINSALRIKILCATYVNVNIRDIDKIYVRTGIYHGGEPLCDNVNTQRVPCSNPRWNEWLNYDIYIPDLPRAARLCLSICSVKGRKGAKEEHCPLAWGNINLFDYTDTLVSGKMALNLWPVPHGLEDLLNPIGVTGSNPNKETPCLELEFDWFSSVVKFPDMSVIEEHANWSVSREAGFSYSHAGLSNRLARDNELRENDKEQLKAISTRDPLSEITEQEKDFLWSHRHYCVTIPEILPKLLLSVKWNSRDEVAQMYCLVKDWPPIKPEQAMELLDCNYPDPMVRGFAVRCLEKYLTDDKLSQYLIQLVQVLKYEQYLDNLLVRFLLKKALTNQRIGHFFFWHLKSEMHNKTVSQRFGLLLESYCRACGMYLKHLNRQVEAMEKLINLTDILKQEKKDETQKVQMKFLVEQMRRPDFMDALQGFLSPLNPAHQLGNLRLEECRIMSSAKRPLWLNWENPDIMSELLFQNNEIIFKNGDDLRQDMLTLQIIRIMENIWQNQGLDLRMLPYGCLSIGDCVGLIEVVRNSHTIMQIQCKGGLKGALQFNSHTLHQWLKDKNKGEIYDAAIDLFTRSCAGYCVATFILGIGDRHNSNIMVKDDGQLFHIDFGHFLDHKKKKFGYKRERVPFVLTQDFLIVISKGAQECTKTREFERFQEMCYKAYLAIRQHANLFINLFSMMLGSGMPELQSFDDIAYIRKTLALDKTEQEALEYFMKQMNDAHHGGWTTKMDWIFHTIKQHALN
Sequence of PI3Kα (P27986 whole entry partner, species assumed): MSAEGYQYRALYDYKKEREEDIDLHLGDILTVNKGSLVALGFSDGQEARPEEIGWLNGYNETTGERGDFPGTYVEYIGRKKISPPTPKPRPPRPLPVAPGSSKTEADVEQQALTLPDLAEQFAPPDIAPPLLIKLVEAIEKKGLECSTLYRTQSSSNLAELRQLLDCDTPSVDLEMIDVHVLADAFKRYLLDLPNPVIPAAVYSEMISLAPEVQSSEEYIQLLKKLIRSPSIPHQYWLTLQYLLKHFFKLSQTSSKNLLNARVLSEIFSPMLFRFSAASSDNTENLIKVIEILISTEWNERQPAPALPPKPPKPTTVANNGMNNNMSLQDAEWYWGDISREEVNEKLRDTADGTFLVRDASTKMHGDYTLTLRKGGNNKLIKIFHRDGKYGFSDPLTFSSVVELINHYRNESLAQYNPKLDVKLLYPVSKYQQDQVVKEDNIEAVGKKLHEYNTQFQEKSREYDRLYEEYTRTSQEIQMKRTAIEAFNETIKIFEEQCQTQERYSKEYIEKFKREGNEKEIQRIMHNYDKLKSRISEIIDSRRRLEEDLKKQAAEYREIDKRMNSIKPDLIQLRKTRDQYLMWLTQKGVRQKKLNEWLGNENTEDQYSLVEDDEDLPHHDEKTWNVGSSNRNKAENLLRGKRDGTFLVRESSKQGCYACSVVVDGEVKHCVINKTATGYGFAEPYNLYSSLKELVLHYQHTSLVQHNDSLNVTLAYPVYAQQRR

GI50 [1] | GI50 [2] | IC50 [4] | Structure (SMILES) | inhibition at 10 mg/kg [3] | inhibition at 10 mg/kg [5]
≤ 5 µM | ≤ 5 µM | < 0.01 µM | CC(C)Cn1c(N2CCN(C(=O)C[C@H](C)O)[C@H](C)C2)nc2c(N3CCOCC3)nc(-c3cnc(N)nc3)nc21 [Example 86, (2S)-4-{(2R)-4-[2-(2-Aminopyrimidin-5-yl)-9-isobutyl-6-morpholin-4-yl-9H-purin-8-yl]-2-methylpiperazin-1-yl}-4-oxobutan-2-ol] | > 90% | > 60%
≤ 5 µM | ≤ 5 µM | < 0.01 µM | C[C@H](O)C(=O)N1CCN(c2nc3c(N4CCOCC4)nc(-c4cnc(N)nc4)nc3n2CC2CC2)CC1 [Example 88, (2S)-1-{4-[2-(2-Aminopyrimidin-5-yl)-9-(cyclopropylmethyl)-6-morpholin-4-yl-9H-purin-8-yl]piperazin-1-yl}-1-oxopropan-2-ol] | 70 to 90% | > 60%
≤ 5 µM | ≤ 5 µM | 0.01 to 0.02 µM | C[C@H](O)C(=O)N1CCN(c2nc3c(N4CCOCC4)nc(-c4cnc(N)nc4)nc3n2CC2CC2)C[C@@H]1C [Example 92, (2S)-1-{(2S)-4-[2-(2-Aminopyrimidin-5-yl)-9-(cyclopropylmethyl)-6-morpholin-4-yl-9H-purin-8-yl]-2-methylpiperazin-1-yl}-1-oxopropan-2-ol] | > 90% | > 60%
≤ 5 µM | ≤ 5 µM | 0.01 to 0.02 µM | C[C@H](O)C(=O)N1CCN(c2nc3c(N4CCOCC4)nc(-c4cnc(N)nc4)nc3n2CC2CC2)C[C@H]1C [Example 95, (2S)-1-{(2R)-4-[2-(2-Aminopyrimidin-5-yl)-9-(cyclopropylmethyl)-6-morpholin-4-yl-9H-purin-8-yl]-2-methylpiperazin-1-yl}-1-oxopropan-2-ol] | 70 to 90% | > 60%
≤ 5 µM | ≤ 5 µM | < 0.01 µM | CC(=O)N1CCN(c2nc3c(N4CCOCC4)nc(-c4cnc(N)nc4)nc3n2CC2CC2)C[C@@H]1C [Example 96, 5-{8-[(3S)-4-Acetyl-3-methylpiperazin-1-yl]-9-(cyclopropylmethyl)-6-morpholin-4-yl-9H-purin-2-yl}pyrimidin-2-amine] | > 90% | > 60%
≤ 5 µM | ≤ 5 µM | 0.01 to 0.02 µM | CC(=O)N1CCN(c2nc3c(N4CCOCC4)nc(-c4cnc(N)nc4)nc3n2CC2CC2)C[C@H]1C [Example 97, 5-{8-[(3R)-4-Acetyl-3-methylpiperazin-1-yl]-9-(cyclopropylmethyl)-6-morpholin-4-yl-9H-purin-2-yl}pyrimidin-2-amine] | 70 to 90% | 30 to 60%
≤ 5 µM | ≤ 5 µM | < 0.01 µM | CC(=O)N1[C@H](C)CN(c2nc3c(N4CCOCC4)nc(-c4cnc(N)nc4)nc3n2CC2CC2)C[C@@H]1C [Example 98, 5-{8-[4-Acetyl-cis-3,5-dimethylpiperazin-1-yl]-9-(cyclopropylmethyl)-6-morpholin-4-yl-9H-purin-2-yl}pyrimidin-2-amine] | > 90% | 30 to 60%
≤ 5 µM | ≤ 5 µM | 0.01 to 0.02 µM | CC(=O)N1CCN(c2nc3c(N4CCOCC4)nc(-c4cnc(N)nc4)nc3n2CC(C)C)C[C@@H]1C [Example 101, 5-{8-[(3S)-4-Acetyl-3-methylpiperazin-1-yl]-9-isobutyl-6-morpholin-4-yl-9H-purin-2-yl}pyrimidin-2-amine] | > 90% | > 60%
≤ 5 µM | ≤ 5 µM | 0.01 to 0.02 µM | CC(C)Cn1c(N2CCN(C(=O)[C@H](C)O)[C@H](C)C2)nc2c(N3CCOCC3)nc(-c3cnc(N)nc3)nc21 [Example 103, (2S)-1-{(2R)-4-[2-(2-Aminopyrimidin-5-yl)-9-isobutyl-6-morpholin-4-yl-9H-purin-8-yl]-2-methylpiperazin-1-yl}-1-oxopropan-2-ol] | > 90% | > 60%
≤ 5 µM | ≤ 5 µM | 0.01 to 0.02 µM | CC(C)Cn1c(N2CCN(C(=O)[C@H](C)O)[C@@H](C)C2)nc2c(N3CCOCC3)nc(-c3cnc(N)nc3)nc21 [Example 104, (2S)-1-{(2S)-4-[2-(2-Aminopyrimidin-5-yl)-9-isobutyl-6-morpholin-4-yl-9H-purin-8-yl]-2-methylpiperazin-1-yl}-1-oxopropan-2-ol] | > 90% | > 60%
≤ 5 µM | ≤ 5 µM | < 0.01 µM | C[C@H](O)C(=O)N1CCN(c2nc3c(N4CCOCC4)nc(-c4cnc(N)nc4)nc3n2CC(F)(F)F)C[C@@H]1C [Example 109, (2S)-1-{(2S)-4-[2-(2-Aminopyrimidin-5-yl)-6-morpholin-4-yl-9-(2,2,2-trifluoroethyl)-9H-purin-8-yl]-2-methylpiperazin-1-yl}-1-oxopropan-2-ol] | > 90% | > 60%

The remaining lines, values behind:

Structure (SMILES) | GI50 [1] | GI50 [2] | IC50 [4] | inhibition at 10 mg/kg [3] | inhibition at 10 mg/kg [5]
CC(C)Cn1c(N2CCN(C(=O)CO)CC2)nc2c(N3CCOCC3)nc(-c3cnc(N)nc3)nc21 [Example 89, 2-{4-[2-(2-Aminopyrimidin-5-yl)-9-isobutyl-6-morpholin-4-yl-9H-purin-8-yl]piperazin-1-yl}-2-oxoethanol] | ≤ 5 µM | ≤ 5 µM | < 0.01 µM | 70 to 90% | > 60%
CC(C)Cn1c(N2CCN(C=O)CC2)nc2c(N3CCOCC3)nc(-c3cnc(N)nc3)nc21 [Example 90, 4-[2-(2-Aminopyrimidin-5-yl)-9-isobutyl-6-morpholin-4-yl-9H-purin-8-yl]piperazine-1-carboaldehyde] | ≤ 5 µM | ≤ 5 µM | 0.01 to 0.02 µM | > 90% | > 60%
CC(C)Cn1c(N2CCN(C(=O)[C@@H](C)O)CC2)nc2c(N3CCOCC3)nc(-c3cnc(N)nc3)nc21 [Example 93] | ≤ 5 µM | ≤ 5 µM | < 0.01 µM | > 90% | > 60%
CC(C)Cn1c(N2CCN(C=O)[C@H](C)C2)nc2c(N3CCOCC3)nc(-c3cnc(N)nc3)nc21 [Example 100, (2R)-4-[2-(2-Aminopyrimidin-5-yl)-9-isobutyl-6-morpholin-4-yl-9H-purin-8-yl]-2-methylpiperazine-1-carboaldehyde] | ≤ 5 µM | ≤ 5 µM | < 0.01 µM | > 90% | > 60%
CC(C)Cn1c(N2CCN(C=O)[C@@H](C)C2)nc2c(N3CCOCC3)nc(-c3cnc(N)nc3)nc21 [Example 102, (2S)-4-[2-(2-Aminopyrimidin-5-yl)-9-isobutyl-6-morpholin-4-yl-9H-purin-8-yl]-2-methylpiperazine-1-carboaldehyde] | ≤ 5 µM | ≤ 5 µM | < 0.01 µM | > 90% | > 60%
CNc1ncc(-c2nc(N3CCOCC3)c3nc(N4CCN(S(C)(=O)=O)[C@@H](C)C4)n(CC(F)(F)F)c3n2)cn1 [Example 105, N-Methyl-5-{8-[(3S)-3-methyl-4-(methylsulfonyl)piperazin-1-yl]-6-morpholin-4-yl-9-(2,2,2-trifluoroethyl)-9H-purin-2-yl}pyrimidin-2-amine] | ≤ 5 µM | ≤ 5 µM | < 0.01 µM | > 90% | 30 to 60%
CNc1ncc(-c2nc(N3CCOCC3)c3nc(N4CCN(S(C)(=O)=O)[C@H](C)C4)n(CC(F)(F)F)c3n2)cn1 [Example 106, N-Methyl-5-{8-[(3R)-3-methyl-4-(methylsulfonyl)piperazin-1-yl]-6-morpholin-4-yl-9-(2,2,2-trifluoroethyl)-9H-purin-2-yl}pyrimidin-2-amine] | ≤ 5 µM | ≤ 5 µM | < 0.01 µM | > 90% | > 60%
CNc1ncc(-c2nc(N3CCOCC3)c3nc(N4CCN(C(C)=O)[C@@H](C)C4)n(CC(F)(F)F)c3n2)cn1 [Example 107, 5-{8-[(3S)-4-Acetyl-3-methylpiperazin-1-yl]-6-morpholin-4-yl-9-(2,2,2-trifluoroethyl)-9H-purin-2-yl}-N-methylpyrimidin-2-amine] | ≤ 5 µM | ≤ 5 µM | < 0.01 µM | > 90% | > 60%
CNc1ncc(-c2nc(N3CCOCC3)c3nc(N4CCN(C(C)=O)[C@H](C)C4)n(CC(F)(F)F)c3n2)cn1 [Example 108, 5-{8-[(3R)-4-Acetyl-3-methylpiperazin-1-yl]-6-morpholin-4-yl-9-(2,2,2-trifluoroethyl)-9H-purin-2-yl}-N-methylpyrimidin-2-amine] | ≤ 5 µM | ≤ 5 µM | 0.01 to 0.02 µM | > 90% | > 60%
